The source of these data is US12258328B2, “6-membered heteroaryl-containing aminopyridine compounds as EGFR inhibitors” (YUHAN CORPORATION, priority 2021, dated 2025).

pIC50: −log10 of the molar value. Where two headings read alike, the source gives them in different places.

Assay [1] deals with EGFR del19/C797S (Homo sapiens, UniProt P00533, C797S/DEL746-750). Nature of the assay: Biochemical EGFR kinase assay (Lance Ultra TR-FRET), double mutant del19/C797S. A digest of the protocol: (§1)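 Enzyme reactions lasted 1 hour at room temperature with test compounds between 0.003 and 10 μM, followed by 10 mM EDTA quench.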
EGFR del19/C797S, sequence (P00533 with tags, fused parts or gaps DEL746-750/C797S): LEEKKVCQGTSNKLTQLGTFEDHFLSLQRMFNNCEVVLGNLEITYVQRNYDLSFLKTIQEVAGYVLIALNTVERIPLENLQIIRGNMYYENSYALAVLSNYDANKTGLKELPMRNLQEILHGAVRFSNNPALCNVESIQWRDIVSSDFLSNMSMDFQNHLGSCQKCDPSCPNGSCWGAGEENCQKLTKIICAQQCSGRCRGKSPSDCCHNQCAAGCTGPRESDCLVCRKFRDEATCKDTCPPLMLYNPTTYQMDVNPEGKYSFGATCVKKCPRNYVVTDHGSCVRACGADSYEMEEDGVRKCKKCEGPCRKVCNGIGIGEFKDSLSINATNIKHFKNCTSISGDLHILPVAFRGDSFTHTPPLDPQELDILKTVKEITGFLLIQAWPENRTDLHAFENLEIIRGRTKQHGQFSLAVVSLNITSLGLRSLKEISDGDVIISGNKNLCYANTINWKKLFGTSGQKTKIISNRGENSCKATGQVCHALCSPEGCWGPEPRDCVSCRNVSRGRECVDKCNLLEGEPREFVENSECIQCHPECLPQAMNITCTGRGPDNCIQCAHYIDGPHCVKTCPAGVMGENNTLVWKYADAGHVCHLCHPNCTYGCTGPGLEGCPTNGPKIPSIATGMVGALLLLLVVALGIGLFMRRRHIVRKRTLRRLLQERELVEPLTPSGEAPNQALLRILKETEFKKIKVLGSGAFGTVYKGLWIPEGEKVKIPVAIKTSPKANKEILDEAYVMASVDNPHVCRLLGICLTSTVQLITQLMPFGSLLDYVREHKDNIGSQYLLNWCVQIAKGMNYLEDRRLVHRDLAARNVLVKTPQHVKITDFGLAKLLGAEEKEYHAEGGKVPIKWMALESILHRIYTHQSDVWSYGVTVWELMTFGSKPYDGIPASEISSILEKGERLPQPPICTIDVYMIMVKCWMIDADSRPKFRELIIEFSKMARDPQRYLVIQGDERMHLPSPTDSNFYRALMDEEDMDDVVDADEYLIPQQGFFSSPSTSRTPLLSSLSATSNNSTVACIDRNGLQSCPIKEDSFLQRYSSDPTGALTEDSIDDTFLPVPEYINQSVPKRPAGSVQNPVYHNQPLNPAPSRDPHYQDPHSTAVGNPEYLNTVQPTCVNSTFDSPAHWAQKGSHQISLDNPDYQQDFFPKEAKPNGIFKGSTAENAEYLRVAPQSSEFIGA
The target of assay [2] is EGFR L858R/T790M/C797S (Homo sapiens, UniProt P00533, C797S/L858R/T790M). Description: Biochemical EGFR kinase assay (Lance Ultra TR-FRET), triple mutant L858R/T790M/C797S. Put shortly: as §1
Assay [3] deals with EGFR L858R/C797S (Homo sapiens, UniProt P00533, C797S/L858R). Nature of the assay: Biochemical EGFR kinase assay (Lance Ultra TR-FRET), double mutant L858R/C797S. A digest of the protocol: as §1
EGFR L858R/C797S, sequence (P00533 25-1210 C797S/L858R): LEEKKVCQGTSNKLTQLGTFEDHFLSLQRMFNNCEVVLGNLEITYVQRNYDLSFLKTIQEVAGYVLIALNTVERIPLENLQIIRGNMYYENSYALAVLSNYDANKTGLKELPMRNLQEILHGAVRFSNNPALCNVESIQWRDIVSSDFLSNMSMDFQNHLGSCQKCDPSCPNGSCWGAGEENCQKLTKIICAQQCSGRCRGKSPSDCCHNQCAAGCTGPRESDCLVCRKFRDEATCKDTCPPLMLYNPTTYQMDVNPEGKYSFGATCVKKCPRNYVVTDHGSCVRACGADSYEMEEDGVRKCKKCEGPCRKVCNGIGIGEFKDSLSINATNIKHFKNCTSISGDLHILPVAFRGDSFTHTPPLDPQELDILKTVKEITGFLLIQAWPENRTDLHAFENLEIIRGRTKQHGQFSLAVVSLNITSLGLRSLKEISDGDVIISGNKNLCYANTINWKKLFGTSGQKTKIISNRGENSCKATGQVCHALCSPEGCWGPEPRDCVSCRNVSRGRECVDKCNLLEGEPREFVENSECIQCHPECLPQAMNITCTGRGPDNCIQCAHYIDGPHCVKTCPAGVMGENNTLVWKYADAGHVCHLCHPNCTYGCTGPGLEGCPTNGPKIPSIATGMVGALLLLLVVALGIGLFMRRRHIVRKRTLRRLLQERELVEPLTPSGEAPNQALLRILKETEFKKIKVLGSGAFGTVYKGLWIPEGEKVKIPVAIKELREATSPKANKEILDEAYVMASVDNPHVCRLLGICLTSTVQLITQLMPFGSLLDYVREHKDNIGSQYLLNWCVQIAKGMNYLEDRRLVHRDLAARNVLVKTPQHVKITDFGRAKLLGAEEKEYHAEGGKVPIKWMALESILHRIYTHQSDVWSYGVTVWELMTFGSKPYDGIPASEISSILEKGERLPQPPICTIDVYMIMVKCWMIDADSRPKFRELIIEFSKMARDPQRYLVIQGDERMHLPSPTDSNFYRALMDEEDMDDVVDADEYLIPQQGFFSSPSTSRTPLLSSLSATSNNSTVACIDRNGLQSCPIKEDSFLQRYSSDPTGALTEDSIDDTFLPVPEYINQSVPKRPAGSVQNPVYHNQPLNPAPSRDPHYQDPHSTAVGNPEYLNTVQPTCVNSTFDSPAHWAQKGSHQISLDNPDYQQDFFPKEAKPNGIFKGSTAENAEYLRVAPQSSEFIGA
Assay [4] concerns the target EGFR wildtype (Homo sapiens, UniProt P00533). Nature of the assay: Biochemical EGFR kinase assay (Lance Ultra TR-FRET), wildtype. Put shortly:
as §1

The target in assay [5] is EGFR del19/T790M/C797S (Homo sapiens, UniProt P00533, C797S/DEL746-750/T790M). Nature of the assay: Biochemical EGFR kinase assay (Lance Ultra TR-FRET), triple mutant del19/T790M/C797S. Put shortly: as §1
EGFR del19/T790M/C797S, sequence (P00533 with tags, fused parts or gaps DEL746-750/T790M/C797S): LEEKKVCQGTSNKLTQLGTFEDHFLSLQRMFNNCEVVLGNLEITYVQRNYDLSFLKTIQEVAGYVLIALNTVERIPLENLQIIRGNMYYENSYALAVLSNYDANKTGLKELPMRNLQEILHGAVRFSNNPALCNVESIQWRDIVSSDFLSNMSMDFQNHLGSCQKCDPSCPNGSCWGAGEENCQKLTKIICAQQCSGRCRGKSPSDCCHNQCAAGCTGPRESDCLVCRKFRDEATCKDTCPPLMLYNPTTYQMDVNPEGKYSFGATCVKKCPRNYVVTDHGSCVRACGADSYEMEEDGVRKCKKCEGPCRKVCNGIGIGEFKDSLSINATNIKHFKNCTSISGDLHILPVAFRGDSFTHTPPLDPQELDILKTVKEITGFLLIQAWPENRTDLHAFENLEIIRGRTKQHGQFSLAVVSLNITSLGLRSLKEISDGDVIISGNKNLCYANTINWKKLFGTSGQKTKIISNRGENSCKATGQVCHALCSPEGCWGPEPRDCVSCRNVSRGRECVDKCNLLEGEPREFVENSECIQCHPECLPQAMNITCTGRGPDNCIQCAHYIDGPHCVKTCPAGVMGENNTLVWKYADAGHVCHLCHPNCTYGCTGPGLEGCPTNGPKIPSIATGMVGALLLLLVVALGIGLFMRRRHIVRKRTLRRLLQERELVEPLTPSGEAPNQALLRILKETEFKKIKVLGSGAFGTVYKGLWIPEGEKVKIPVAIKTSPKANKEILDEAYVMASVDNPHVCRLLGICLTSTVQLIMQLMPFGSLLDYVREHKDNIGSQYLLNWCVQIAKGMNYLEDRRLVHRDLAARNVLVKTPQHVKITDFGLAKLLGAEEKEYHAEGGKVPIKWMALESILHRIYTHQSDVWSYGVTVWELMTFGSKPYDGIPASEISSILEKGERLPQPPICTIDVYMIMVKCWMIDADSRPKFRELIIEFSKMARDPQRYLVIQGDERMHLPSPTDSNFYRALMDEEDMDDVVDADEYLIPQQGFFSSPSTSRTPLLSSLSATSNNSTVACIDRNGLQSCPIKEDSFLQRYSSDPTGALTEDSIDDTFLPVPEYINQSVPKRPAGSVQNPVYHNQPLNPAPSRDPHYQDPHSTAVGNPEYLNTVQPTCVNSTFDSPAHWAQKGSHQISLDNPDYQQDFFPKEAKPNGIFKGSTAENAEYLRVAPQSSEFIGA
The mark [6] stands for this setting: ATP at Km, read-out: IC50 del19/C797S, Km ATP.
The mark [7] stands for this setting: ATP at Km, read-out: IC50 L858R/T790M/C797S, Km ATP.
Setting [8] is: ATP at Km, read-out: IC50 L858R/C797S, Km ATP.
[9] abbreviates: ATP at Km, read-out: IC50 WT, Km ATP.
The mark [10] stands for this setting: ATP at Km, read-out: IC50 del19/T790M/C797S, Km ATP.
[11] abbreviates: IC50 del19/C797S (nM) 100 μM ATP, 100 μM ATP.
Setting [12] is: Km ATP, read-out: IC50 del19/C797S (nM) Km ATP.
Setting [13] is: IC50 L858R/T790M/C797S (nM) 100 μM ATP, 100 μM ATP.
Where [14] appears, read: Km ATP, read-out: IC50 L858R/T790M/C797S (nM) Km ATP.
Where [15] appears, read: Km ATP, read-out: IC50 L858R/C797S (nM) Km ATP.
[16] abbreviates: IC50 WT (nM) 100 μM ATP, 100 μM ATP.
The mark [17] stands for this setting: IC50 del19/T790M/C797S (nM) 100 μM ATP, 100 μM ATP.
The mark [18] stands for this setting: Km ATP, read-out: IC50 del19/T790M/C797S (nM) Km ATP.
Setting [19] is: IC50 L858R/C797S (nM) 100 μM ATP, 100 μM ATP.
[20] abbreviates: Km ATP, read-out: IC50 WT (nM) Km ATP.
The mark [21] stands for this setting: IC50 L858R/T790M/C797S, 100 μM ATP.
[22] abbreviates: IC50 del19/T790M/C797S, 100 μM ATP.

EGFR wildtype, sequence (P00533 25-1210): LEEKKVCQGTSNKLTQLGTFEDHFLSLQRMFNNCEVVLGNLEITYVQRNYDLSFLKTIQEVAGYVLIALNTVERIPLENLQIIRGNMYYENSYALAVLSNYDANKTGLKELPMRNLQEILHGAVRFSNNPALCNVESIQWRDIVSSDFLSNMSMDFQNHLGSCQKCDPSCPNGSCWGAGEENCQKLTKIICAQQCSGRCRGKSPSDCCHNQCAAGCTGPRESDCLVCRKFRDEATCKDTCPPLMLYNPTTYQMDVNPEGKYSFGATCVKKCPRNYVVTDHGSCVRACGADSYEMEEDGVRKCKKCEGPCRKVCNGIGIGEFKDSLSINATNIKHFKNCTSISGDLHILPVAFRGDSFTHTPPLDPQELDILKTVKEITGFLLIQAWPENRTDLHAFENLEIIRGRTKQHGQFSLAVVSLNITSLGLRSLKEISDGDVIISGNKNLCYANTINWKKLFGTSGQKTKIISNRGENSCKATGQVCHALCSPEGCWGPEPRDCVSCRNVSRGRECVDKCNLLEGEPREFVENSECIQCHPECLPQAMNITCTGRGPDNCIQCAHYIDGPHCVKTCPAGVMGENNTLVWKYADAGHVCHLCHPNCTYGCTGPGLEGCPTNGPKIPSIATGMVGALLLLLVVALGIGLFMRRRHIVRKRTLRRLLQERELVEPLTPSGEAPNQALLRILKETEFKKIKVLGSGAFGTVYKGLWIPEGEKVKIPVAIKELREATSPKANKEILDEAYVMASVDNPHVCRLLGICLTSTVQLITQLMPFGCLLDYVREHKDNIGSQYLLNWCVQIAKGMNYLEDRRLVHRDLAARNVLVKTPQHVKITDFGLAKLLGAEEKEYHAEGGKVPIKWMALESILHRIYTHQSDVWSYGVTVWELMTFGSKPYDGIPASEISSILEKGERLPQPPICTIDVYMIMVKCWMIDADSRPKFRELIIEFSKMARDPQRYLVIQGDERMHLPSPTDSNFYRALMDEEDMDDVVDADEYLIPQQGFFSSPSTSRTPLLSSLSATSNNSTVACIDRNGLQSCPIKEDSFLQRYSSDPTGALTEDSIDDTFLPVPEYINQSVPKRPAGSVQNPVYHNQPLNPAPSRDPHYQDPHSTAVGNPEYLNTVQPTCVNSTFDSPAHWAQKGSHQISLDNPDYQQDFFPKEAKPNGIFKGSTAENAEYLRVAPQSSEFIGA

As to `CN1CCC(Oc2ccc(-c3cnc(Nc4ccnc(-c5cnn(S(=O)(=O)C6CC6)c5)n4)cc3N[C@H]3CC[C@@H](CO)CC3)nc2)CC1` [Example 251, ((1s,4s)-4-((6′-((2-(1-(Cyclopropylsulfonyl)-1H-pyrazol-4-yl)pyrimidin-4-yl)amino)-5-((1-methylpiperidin-4-yl)oxy)-[2,3′-bipyridin]-4′-yl)amino)cyclohexyl)methanol], the pIC50 in assay [1] (setting [6]) was 9.70; in assay [2] (setting [7]) it was 10.00; in assay [3] (setting [8]) it was 9.52; in assay [4] (setting [9]), 9.70; in assay [5] (setting [10]), 9.30.
Take `C[C@]1(O)CC[C@@H](Nc2cc(Nc3ccnc(-c4cnn(S(=O)(=O)C5CC5)c4)n3)ncc2-c2ccccn2)CC1` [Example 35, (1s,4s)-4-((6′-((2-(1-(Cyclopropylsulfonyl)-1H-pyrazol-4-yl)pyrimidin-4-yl)amino)-[2,3′-bipyridin]-4′-yl)amino)-1-methylcyclohexan-1-ol]: the IC50 in assay [1] (setting [11]) turned out to be 0.2 nM; in assay [1] (setting [12]), 0.3 nM; in assay [2] (setting [13]), 0.3 nM; in assay [2] (setting [14]) it was 0.2 nM; in assay [3] (setting [15]), 0.3 nM; in assay [4] (setting [16]), 811 nM. The IC50 in assay [5] (setting [17]) was 0.3 nM; in assay [5] (setting [18]) it was 0.6 nM.
On to `COC1CN(c2ccc(-c3cnc(Nc4ccnc(-c5cnn(S(=O)(=O)C6CC6)c5)n4)cc3N[C@H]3CC[C@@](C)(O)CC3)nc2)C1` [Example 90, (1s,4s)-4-((6′-((2-(1-(Cyclopropylsulfonyl)-1H-pyrazol-4-yl)pyrimidin-4-yl)amino)-5-(3-methoxyazetidin-1-yl)-[2,3′-bipyridin]-4′-yl)amino)-1-methylcyclohexan-1-ol], for which the IC50 in assay [1] (setting [11]) turned out to be 0.9 nM; in assay [1] (setting [12]), 0.4 nM; in assay [2] (setting [13]), 0.4 nM; in assay [2] (setting [14]) it was 0.3 nM; in assay [3] (setting [19]), 15.1 nM; in assay [3] (setting [15]) it was 0.4 nM. Further, the IC50 in assay [4] (setting [16]) was found to be 406 nM; in assay [4] (setting [20]) it was 0.4 nM; in assay [5] (setting [17]), 0.4 nM; in assay [5] (setting [18]), 0.6 nM.
As for `CN(C)C[C@H]1CC[C@@H](Nc2cc(Nc3ccnc(-c4cnn(S(=O)(=O)C5CC5)c4)n3)ncc2-c2ccc(CC(F)(F)F)cn2)CC1` [Example 221, N^6′-(2-(1-(Cyclopropylsulfonyl)-1H-pyrazol-4-yl)pyrimidin-4-yl)-N^4′-((1s,4s)-4-((dimethylamino)methyl)cyclohexyl)-5-(2,2,2-trifluoroethyl)-[2,3′-bipyridine]-4′,6′-diamine], the pIC50 was 8.96 in assay [1] (setting [6]); 9.52 in assay [2] (setting [7]); 9.30 in assay [2] (setting [21]); 9.00 in assay [3] (setting [8]); 8.24 in assay [3] (IC50 L858R/C797S, 100 μM ATP); 8.68 in assay [4] (setting [9]). Moreover, the pIC50 in assay [4] (IC50 WT, 100 μM ATP) was 6.12; in assay [5] (setting [10]), 8.96; in assay [5] (setting [22]) it was 8.85.
Consider `CN1CCC(Oc2ccc(-c3cnc(Nc4ccnc(-c5cnn(S(=O)(=O)C6CC6)c5)n4)cc3N[C@H]3CCC[C@H](CO)C3)nc2)CC1` [Example 253, ((1S,3S)-3-((6′-((2-(1-(Cyclopropylsulfonyl)-1H-pyrazol-4-yl)pyrimidin-4-yl)amino)-5-((1-methylpiperidin-4-yl)oxy)-[2,3′-bipyridin]-4′-yl)amino)cyclohexyl)methanol], for which the pIC50 in assay [1] (setting [6]) was 9.40; in assay [2] (setting [7]), 9.40; in assay [3] (setting [8]), 9.70; in assay [4] (setting [9]), 9.00; in assay [5] (setting [10]), 9.15.
Turning to `COc1c(F)ccnc1-c1cnc(Nc2ccnc(-c3cnn(S(=O)(=O)C4CC4)c3)n2)cc1N[C@H]1CC[C@@](C)(O)CC1` [Example 335, (1s,4s)-4-((6′-((2-(1-(Cyclopropylsulfonyl)-1H-pyrazol-4-yl)pyrimidin-4-yl)amino)-4-fluoro-3-methoxy-[2,3′-bipyridin]-4′-yl)amino)-1-methylcyclohexan-1-ol], the IC50 was 1840 nM in assay [1] (setting [12]); 2.6 nM in assay [2] (setting [14]); 1780 nM in assay [3] (setting [15]); 248 nM in assay [4] (setting [20]); 5.8 nM in assay [5] (setting [18]).
`CC(C)(O)[C@H]1CC[C@@H](Nc2cc(Nc3ccnc(-c4cnn(S(=O)(=O)C5CC5)c4)n3)ncc2-c2cc(NC3CC(F)(F)C3)ccn2)CC1` [Example 215, 2-((1s,4s)-4-((6′-((2-(1-(Cyclopropylsulfonyl)-1H-pyrazol-4-yl)pyrimidin-4-yl)amino)-4-((3,3-difluorocyclobutyl)amino)-[2,3′-bipyridin]-4′-yl)amino)cyclohexyl)propan-2-ol]: the pIC50 is 8.11 in assay [1] (setting [6]); 7.44 in assay [1] (IC50 del19/C797S, 100 μM ATP); 8.12 in assay [2] (setting [7]); 7.76 in assay [2] (setting [21]); 7.87 in assay [3] (setting [8]); 7.33 in assay [3] (IC50 L858R/C797S, 100 μM ATP). Moreover, the pIC50 is 7.67 in assay [4] (setting [9]); 5.21 in assay [4] (IC50 WT, 100 μM ATP); 8.04 in assay [5] (setting [10]); 7.60 in assay [5] (setting [22]).
`CC(C)(O)c1cc(-c2cnc(Nc3ccnc(-c4cnn(S(=O)(=O)C5CC5)c4)n3)cc2N[C@H]2CC[C@@H](C(C)(C)O)CC2)ncc1F` [Example 106, 2-(6′-((2-(1-(Cyclopropylsulfonyl)-1H-pyrazol-4-yl)pyrimidin-4-yl)amino)-5-fluoro-4′-(((1s,4s)-4-(2-hydroxypropan-2-yl)cyclohexyl)amino)-[2,3′-bipyridin]-4-yl)propan-2-ol]: the IC50 turned out to be 11.2 nM in assay [1] (setting [11]); 4.1 nM in assay [2] (setting [13]); 2.6 nM in assay [2] (setting [14]); 9.6 nM in assay [3] (setting [19]); 4.1 nM in assay [3] (setting [15]); 3710 nM in assay [4] (setting [16]). Besides, the IC50 in assay [4] (setting [20]) came to 37.8 nM; in assay [5] (setting [17]) it was 8.6 nM; in assay [5] (setting [18]), 6.2 nM.
For `CC(C)Nc1cc(Nc2ccnc(-c3cnn(S(=O)(=O)C4CC4)c3)n2)ncc1-c1ccc(OC2CCN(C)CC2)cn1` [Example 249, N^6′-(2-(1-(Cyclopropylsulfonyl)-1H-pyrazol-4-yl)pyrimidin-4-yl)-N^4′-isopropyl-5-((1-methylpiperidin-4-yl)oxy)-[2,3′-bipyridine]-4′,6′-diamine], the pIC50 in assay [1] (setting [6]) was 9.40; in assay [2] (setting [7]), 9.70; in assay [3] (setting [8]), 9.70; in assay [4] (setting [9]), 8.55; in assay [5] (setting [10]), 9.30.
Consider `CN1CCC(Oc2ccc(-c3cnc(Nc4ccnc(-c5cnn(S(=O)(=O)C6CC6)c5)n4)cc3N[C@H]3CC[C@@](C)(O)CC3)nc2)CC1` [Example 250, (1s,4s)-4-((6′-((2-(1-(Cyclopropylsulfonyl)-1H-pyrazol-4-yl)pyrimidin-4-yl)amino)-5-((1-methylpiperidin-4-yl)oxy)-[2,3′-bipyridin]-4′-yl)amino)-1-methylcyclohexan-1-ol], for which the pIC50 in assay [1] (setting [6]) is 9.40; in assay [2] (setting [7]), 9.70; in assay [3] (setting [8]), 9.40; in assay [4] (setting [9]), 9.52; in assay [5] (setting [10]) it was 9.40.
`O=S(=O)(C1CC1)n1cc(-c2nccc(Nc3cc(NC4CCC(F)(CO)CC4)c(-c4cccc(F)n4)cn3)n2)cn1` (stereo not shown) [Example 162, (4-((6′-((2-(1-(Cyclopropylsulfonyl)-1H-pyrazol-4-yl)pyrimidin-4-yl)amino)-6-fluoro-[2,3′-bipyridin]-4′-yl)amino)-1-fluorocyclohexyl)methanol]: the pIC50 is 7.88 in assay [1] (setting [6]); 7.68 in assay [1] (IC50 del19/C797S, 100 μM ATP); 9.40 in assay [2] (setting [7]); 8.52 in assay [2] (setting [21]); 7.70 in assay [3] (setting [8]); 5.81 in assay [3] (IC50 L858R/C797S, 100 μM ATP). Besides, the pIC50 in assay [4] (setting [9]) was 5.53; in assay [4] (IC50 WT, 100 μM ATP), less than 5.00; in assay [5] (setting [10]) it was 9.30; in assay [5] (setting [22]), 8.89.
For `CN(C)C[C@H]1CC[C@@H](Nc2cc(Nc3ccnc(-c4cnn(S(=O)(=O)C5CC5)c4)n3)ncc2-c2cc(N3CCC(F)(F)CC3)ccn2)CC1` [Example 101, N^6′-(2-(1-(Cyclopropylsulfonyl)-1H-pyrazol-4-yl)pyrimidin-4-yl)-4-(4,4-difluoropiperidin-1-yl)-N^4′-((1s,4s)-4-((dimethylamino)methyl)cyclohexyl)-[2,3′-bipyridine]-4′,6′-diamine], the IC50 in assay [1] (setting [11]) came out at 2.4 nM; in assay [1] (setting [12]) it was 2.1 nM; in assay [2] (setting [13]) it was 0.7 nM; in assay [2] (setting [14]) it was 0.4 nM; in assay [3] (setting [19]), 14.4 nM; in assay [3] (setting [15]), 2.1 nM. For the same compound, the IC50 in assay [4] (setting [16]) stood at 575 nM; in assay [4] (setting [20]) it was 2.2 nM; in assay [5] (setting [17]) it was 0.9 nM; in assay [5] (setting [18]) it was 1.7 nM.
